Assay results: patent US20220401390A1, “TREATMENTS OF DIABETIC MACULAR EDEMA AND IMPAIRED VISUAL ACUITY” (KALVISTA PHARMACEUTICALS LIMITED, priority 2019, published 2022)
Entries after “also recorded” stand apart in the source; their conditions may differ.

Columns and labels:
Format in all cases: in vivo, human
[1] = Study 1: plasma profile following intravitreal injection
Text: (§1) The secondary objectives were: • To evaluate the plasma profile of the compound of Formula A following intravitreal injection in adult male and female subjects with central involved diabetic macular edema. • To evaluate the pharmacodynamic effect of intravitreal injection of the compound of Formula A in adult male and female subjects with central involved diabetic macular edema.
(§2) Each subject returned on Day 1, 7, 14, 28 and 56 for safety and ophthalmic assessment. Pharmacokinetic assessment was also taken. In addition, the subject was contacted by the Study Site on Day 3 (+1-1 day) by telephone to inquire about the subject's visual wellbeing and to ask about any adverse events.
(§3) Single 100 μL intravitreal injection of: • 1 μg-10 μg/mL of the compound of Formula A • 3 μg-30 μg/mL of the compound of Formula A • […] of the compound of Formula A

[2] = tested on: subjects with center involved diabetic macular edema; test: Study 1: safety and tolerability of single ascending intravitreal doses
Text: Study—an Open Label, Single Ascending Dose Study to Investigate the Safety and Tolerability of the Compound of Formula A Administered by Intravitreal Injection in Subjects with Center Involved Diabetic Macular Edema and Reduced Vision
The primary objective of the trial was to evaluate the local and systemic safety and tolerability of single ascending doses administered via intravitreal injection of the compound of Formula A in adult male and female subjects with central involved diabetic macular edema.
(§4) Following the signing of informed consent, subjects attended the clinic where screening assessments were recorded (Clinic Visit 1). When deemed eligible, subjects attended the clinic where baseline measurements were recorded (recorded as Day 0, Clinic Visit 2). Following confirmation of eligibility and the taking of baseline ophthalmic measurements, a single intravitreal injection of the compound of Formula A, was administered to the study eye as per Diabetic Retinopathy Clinical Research Network (DRCR.net) protocol.
as §2
Once the highest safe and tolerated (or practical) dose had been established, the study proceeded to Part 2 in which 5 additional subjects were treated with the established highest safe and tolerated (or practical) dose according to the same protocol with the same procedures performed as described for subjects enrolled into Part 1.
as §3
(§5) • Best Corrected Visual Acuity as measured by ETDRS EVA • Intraocular pressure • Color vision • Multifocal Electroretinogram (mfERG) • Humphrey Visual Field 24-2 (HVF 24-2) • Treatment-Emergent Adverse Events (TEAEs) • Changes on ophthalmic examination • Clinical laboratory test results • Vital signs • ECG findings

[3] = tested on: subjects with ciDME who have had prior anti-VEGF treatment; test: Study 2: local and systemic safety and tolerability
Text: To evaluate the local and systemic safety and tolerability of monthly dosing of the injections of the compound of Formula A in subjects with ciDME who had had prior anti-VEGF treatment.
This study was a randomized, sham-controlled, double-masked, 3-arm study into efficacy, safety and tolerability of monthly intravitreal injections of the compound of Formula A as a monotherapy in adult subjects with ciDME. The subjects had all had prior anti-VEGF treatment.
The 129 eligible subjects were randomized approximately 1:1:1 into three arms: • 1. Arm 1, N=44: • Received injections of 3 μg/eye (100 μL injection volume at a concentration of 30 μg/mL) of the compound of formula A; • 2. Arm 2, N=41: • Received injections of 6 μg/eye (100 μL injection volume at a concentration of 60 μg/mL) of the compound of formula A; and • 3. Arm 3, N=44: • Received a sham procedure; during a 12-week, double-masked treatment period (a total of 4 doses given at approximately monthly intervals).
Approximately twenty-four (24) hours after each study drug administration or sham procedure on Day 1 and Weeks 4, 8, and 12, subjects were contacted by telephone to evaluate any reported AEs and changes in concomitant medications. In the event of any reported ocular or systemic AEs that were considered by the Investigator to be a possible cause for concern, the subjects returned to the clinic for assessment as soon as possible. • 3. Follow up Phase:
Safety variables of interest in this study are: • AEs; • Ophthalmic and physical findings; • Laboratory test results (clinical chemistry, hematology, and urinalysis); • Vital signs (SBP, DBP, PR, and respiratory rate).

[4] = tested on: subjects with center involved diabetic macular edema; test: Study 1: pharmacodynamic effect (visual acuity, retinal thickness); details: Day 84, 10 μg dose
[5] = tested on: subjects with center involved diabetic macular edema; test: as above; details: for Mean improvement in visual acuity compared with baseline: single injection
Experimental: as §1, §4, §2, §3, §5

[6] = of the 14 subjects, single intravitreal injection, all dose groups
[7] = whole study population, no control group

For `CCOc1ccc(C[C@@H](NC(=O)c2ccccc2)C(=O)N[C@@H](Cc2ccccc2)C(=O)NCc2ccc(CN)cc2)cc1` [compound of Formula A, N—[(R)-1-[(S)-1-(4-Aminomethyl-benzylcarbamoyl)-2-phenyl-ethylcarbamoyl]-2-(4-ethoxy-phenyl)-ethyl]-benzamide], the “Time post dosing up to which plasma concentrations were quantifiable” value ([1]; 3 μg/eye dose) was “up to 24 hours”, the “Time post dosing up to which plasma concentrations were quantifiable” value ([1]; 10 μg/eye) was “up to 24 hours” and the “Time post injection up to which plasma concentrations were quantifiable” value ([1]; intravitreal injection of 1 μg/eye) was “up to 4 hours”. The “Adverse events leading to withdrawal from the study” value ([2]; 14 subjects, all dose groups) was “nor did any event lead to withdrawal from the study”, the “Deaths or other serious adverse events” value ([2]; 14 subjects, all dose groups) was “no deaths or other serious adverse events” and the Severe events ([2]; 14 subjects, all dose groups) was 1 patient. For the same molecule, the Study drug-related events ([2]; 14 subjects, all dose groups) was 2 patients, the “Subjects who reported at least one adverse event (%)” value [2, 6] was 71% and the “Subjects who reported at least one adverse event (number)” value [2, 6] was 10 subjects. The Adverse systemic effect ([2]; review of adverse events, laboratory results, ECG and physical examinations) was “no evidence of any adverse effect associated with systemic exposure”, the “Tolerability of intravitreal injection” value ([2]; single intravitreal injection, 1, 3 or 10 μg) was “well tolerated” and the “AEs that led to discontinuation” value ([3]; 6 μg arm) was “one retinal neovascularization”. The “Severity of reported adverse events (AEs)” value ([3]; majority of reported AEs, all arms) was “mild”, the “Subjects in whom the treatment was safe and well-tolerated” value ([3]; monthly intravitreal injections, 3 μg or 6 μg) was > 99% and the “Mean improvement in visual acuity” value [4] was 5.5 letters. The “Mean improvement in visual acuity compared with baseline” value ([5]; Day 7, average across all dose groups) was 0.7 letters, the “Mean improvement in visual acuity compared with baseline” value ([5]; Day 14, average across all dose groups) was 1.0 letters and the “Mean improvement in visual acuity compared with baseline” value ([5]; Day 28, average across all dose groups) was 1.9 letters. For the same molecule, the “Mean improvement in visual acuity compared with baseline” value ([5]; Day 56, average across all dose groups) was 2.8 letters, the “Mean improvement in visual acuity” value ([5]; Day 84, 1 μg dose) was 3.3 letters and the “Mean improvement in visual acuity” value ([5]; Day 84, 3 μg dose) was 2.0 letters. For the same molecule, the “Mean improvement in visual acuity compared with baseline” value ([5]; Day 84, average across all dose groups) was 4.1 letters, the “Mean retinal thickness post-injection (in words)” value [5, 7] was “trends of improvement; also recorded: reduction” and the “Mean visual acuity post-injection (in words)” value [5, 7] was “trends of improvement; also recorded: small improvement”.
